Experimental data taken from PubChem BioAssay AID248 (DTP/NCI, 2004).
Values joined by “and” are separate entries in the source; they are usually repeats but may differ in a detail not shown here. Identical values can stand only once. Toxic doses and inconclusive results are not listed. Cut-off read from the data, not from the text of the source: active = T/C of 150% or more; inactive = T/C below 125%.

System: L1210 leukemia ip in BDF1 mice, survival T/C
Assay: NCI In Vivo Anticancer Drug Screen. Data for tumor model L1210 Leukemia (intraperitoneal) in B6D2F1 (BDF1) mice
Conditions: endpoint: mean survival time, higher = longer survival
Outline: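 Read-out is survival time, reported as the treated-group measurement over the vehicle-control measurement.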

[1] = dose: 100.0 mg/kg/injection, schedule: Q01DX009 (ip), vehicle: Klucel (hydroxypropylcellulose) (HPC)
[2] = dose: 200.0 mg/kg/injection, schedule: Q01DX009 (ip), vehicle: Klucel (hydroxypropylcellulose) (HPC)
[3] = dose: 400.0 mg/kg/injection, schedule: Q01DX009 (ip), vehicle: Klucel (hydroxypropylcellulose) (HPC)
[4] = dose: 100.0 mg/kg/injection, schedule: Q04DX003 (ip), vehicle: Klucel (hydroxypropylcellulose) (HPC)
[5] = dose: 200.0 mg/kg/injection, schedule: Q04DX003 (ip), vehicle: Klucel (hydroxypropylcellulose) (HPC)
[6] = dose: 400.0 mg/kg/injection, schedule: Q04DX003 (ip), vehicle: Klucel (hydroxypropylcellulose) (HPC)
[7] = dose: 100.0 mg/kg/injection, schedule: Q01DX001 (ip), vehicle: saline
[8] = dose: 200.0 mg/kg/injection, schedule: Q01DX001 (ip), vehicle: saline
[9] = dose: 100.0 mg/kg/injection, schedule: Q01DX001 (ip), vehicle: carboxymethylcellulose (CMC)
[10] = dose: 200.0 mg/kg/injection, schedule: Q01DX001 (ip), vehicle: carboxymethylcellulose (CMC)
[11] = dose: 400.0 mg/kg/injection, schedule: Q01DX001 (ip), vehicle: carboxymethylcellulose (CMC)
[12] = dose: 100.0 mg/kg/injection, schedule: Q04DX002 (ip), vehicle: Klucel (hydroxypropylcellulose) (HPC)
[13] = dose: 200.0 mg/kg/injection, schedule: Q04DX002 (ip), vehicle: Klucel (hydroxypropylcellulose) (HPC)
[14] = dose: 400.0 mg/kg/injection, schedule: Q01DX001 (ip), vehicle: saline
[15] = dose: 100.0 mg/kg/injection, schedule: Q04DX003 (ip), vehicle: saline
[16] = dose: 200.0 mg/kg/injection, schedule: Q04DX003 (ip), vehicle: saline

Measured: T/C

O=C(Nc1ccccc1F)OCCOc1ccc([N+](=O)[O-])cc1
inactive: [1] 96 % of control | [2] 100 % of control | [3] 94 % of control

CC(=O)c1cc2ccccc2o1
inactive: dose: 6.25 mg/kg/injection, schedule: Q04DX003 (ip), vehicle: water 103 % of control | dose: 12.5 mg/kg/injection, schedule: Q04DX003 (ip), vehicle: water 109 % of control | dose: 50.0 mg/kg/injection, schedule: Q01DX009 (ip), vehicle: Klucel (hydroxypropylcellulose) (HPC) 92 % of control | dose: 50.0 mg/kg/injection, schedule: Q04DX003 (ip), vehicle: water 108 % of control | [1] 90 % of control | dose: 100.0 mg/kg/injection, schedule: Q04DX003 (ip), vehicle: water 112 % of control | [2] 95 % of control | dose: 200.0 mg/kg/injection, schedule: Q04DX003 (ip), vehicle: water 123 % of control

C=C1C2CCC(C2)C1(C)CC/C=C(/C)CO (configuration not stated) (tested in a mixture with another compound)
inactive: [4] 96 % of control | [5] 96 % of control | [6] 93 % of control

CCOC(=N)c1nnn(Cc2ccccc2)c1N
inactive: [7] 89 % of control | [8] 89 % of control

C[C@H]1C[C@H]2[C@@H]3CC[C@](O)(C(=O)CF)[C@@]3(C)C[C@H](O)[C@]2(F)[C@@]2(C)C=CC(=O)C=C12
inactive: dose: 50.0 mg/kg/injection, schedule: Q01DX001 (ip), vehicle: carboxymethylcellulose (CMC) 105 % of control | [9] 113 % of control | [10] 113 % of control | [11] 113 % of control

CCCCCCC(=O)C(CCCC)(C(=O)OCC)C(=O)OCC
inactive: [1] 101 % of control | [2] 104 % of control | [3] 101 % of control

CC1=C(C)CC(C(Cl)(Cl)Cl)C([N+](=O)[O-])C1 (configuration not stated)
inactive: dose: 100.0 mg/kg/injection, schedule: Q01DX009 (ip), vehicle: saline with Tween-80 96 % of control

C[n+]1ccccc1NC(=O)c1ccc(C(=O)Nc2cccc[n+]2C)cc1
inactive: dose: 7.5 mg/kg/injection, schedule: Q01DX Z (ip), vehicle: saline 98 % of control | dose: 15.0 mg/kg/injection, schedule: Q01DX Z (ip), vehicle: saline 100 % of control | dose: 30.0 mg/kg/injection, schedule: Q01DX Z (ip), vehicle: saline 87 % of control | dose: 120.0 mg/kg/injection, schedule: Q01DX Z (ip), vehicle: saline 87 % of control | dose: 240.0 mg/kg/injection, schedule: Q01DX Z (ip), vehicle: saline 91 % of control

C=CCc1cc(OC)cc(C(=O)c2cccc(OC)c2C#N)c1OC
inactive: dose: 100.0 mg/kg/injection, schedule: Q01DX001 (ip), vehicle: other 104 % of control and 106 % of control | dose: 100.0 mg/kg/injection, schedule: Q04DX002 (ip), vehicle: other 104 % of control | dose: 100.0 mg/kg/injection, schedule: Q04DX003 (ip), vehicle: other 100 % of control and 92 % of control | dose: 200.0 mg/kg/injection, schedule: Q01DX001 (ip), vehicle: other 95 % of control and 107 % of control | dose: 200.0 mg/kg/injection, schedule: Q04DX002 (ip), vehicle: other 100 % of control and 92 % of control | dose: 200.0 mg/kg/injection, schedule: Q04DX003 (ip), vehicle: other 100 % of control and 92 % of control | dose: 400.0 mg/kg/injection, schedule: Q01DX001 (ip), vehicle: other 118 % of control and 90 % of control | dose: 400.0 mg/kg/injection, schedule: Q04DX002 (ip), vehicle: other 88 % of control and 89 % of control | dose: 400.0 mg/kg/injection, schedule: Q04DX003 (ip), vehicle: other 102 % of control and 92 % of control

C1=C(c2ccccc2)N(C2CCCCC2)C(c2ccccc2)=CN1Cc1ccccc1
inactive: [12] 92 % of control | [13] 92 % of control

CC[C@H](CC[C@@H](C)[C@H]1CC[C@H]2[C@@H]3CC=C4C[C@@H](O)CC[C@]4(C)[C@H]3CC[C@]12C)C(C)C
inactive: dose: 12.5 mg/kg/injection, schedule: Q01DX001 (ip), vehicle: saline 93 % of control | dose: 12.5 mg/kg/injection, schedule: Q04DX003 (ip), vehicle: saline 98 % of control | dose: 25.0 mg/kg/injection, schedule: Q01DX001 (ip), vehicle: saline 94 % of control | dose: 25.0 mg/kg/injection, schedule: Q04DX003 (ip), vehicle: saline 105 % of control | dose: 50.0 mg/kg/injection, schedule: Q01DX001 (ip), vehicle: saline 88 % of control | dose: 50.0 mg/kg/injection, schedule: Q04DX003 (ip), vehicle: saline 98 % of control | dose: 75.0 mg/kg/injection, schedule: Q04DX003 (ip), vehicle: saline 89 % of control | [7] 89 % of control and 95 % of control | dose: 115.0 mg/kg/injection, schedule: Q04DX003 (ip), vehicle: saline 91 % of control | dose: 170.0 mg/kg/injection, schedule: Q04DX003 (ip), vehicle: saline 87 % of control | [8] 97 % of control | dose: 255.0 mg/kg/injection, schedule: Q04DX003 (ip), vehicle: saline with Tween-80 90 % of control | dose: 385.0 mg/kg/injection, schedule: Q04DX003 (ip), vehicle: saline with Tween-80 96 % of control | [14] 104 % of control and 107 % of control

O=C(Nc1ccccc1)OCCOc1ccc(Cl)cc1
inactive: [12] 88 % of control | [13] 95 % of control | dose: 400.0 mg/kg/injection, schedule: Q04DX002 (ip), vehicle: Klucel (hydroxypropylcellulose) (HPC) 95 % of control

ONC(=Nc1ccccc1)c1ccccc1
inactive: [15] 104 % of control | [16] 101 % of control

O=S(=O)(O)c1ccc(Nc2ccccc2)cc1
inactive: [1] 103 % of control and 100 % of control | [4] 107 % of control and 103 % of control | [2] 103 % of control and 102 % of control | [5] 96 % of control and 103 % of control | [3] 108 % of control and 102 % of control | [6] 102 % of control and 101 % of control

CC12CCCCC1C(C(N)=O)C(=O)O2 (configuration not stated)
inactive: [7] 105 % of control | [8] 97 % of control | [14] 105 % of control

Cc1nnnn1C
inactive: [7] 95 % of control | [15] 105 % of control | [8] 108 % of control | [16] 107 % of control | [14] 97 % of control | dose: 400.0 mg/kg/injection, schedule: Q04DX003 (ip), vehicle: saline 88 % of control

Cc1ccc(NC(=O)NCC(=O)O)cc1
inactive: [9] 101 % of control | [10] 97 % of control | [11] 109 % of control
